Molecular target: band 3 (anion exchanger AE1)
Assay: […]SO4/SO4 exchange in band […] proteoliposomes
Format: biochemical, Oryctolagus cuniculus

`O=[N+]([O-])c1ccc(/C=C/c2ccc([N+](=O)[O-])cc2S(=O)(=O)O)c(S(=O)(=O)O)c1` [DNDS, 4,4′-dinitorsostilbene-2,2′-disulfonic acid] showed a Ki of 2000 ± 1000 nM.

Reference: PMC2139966 (The Journal of Cell Biology, 1997)
